Source: patent publication US10450549B2, “Aryloxyphenoxypropionate tolerance in turfrgass species and use of AAD1 as a selectable marker” (Dow AgroSciences, LLC, priority 2004, dated 2019)

What was measured:
[1] = tested on: creeping bentgrass cv Crenshaw callus; assay: Callus selection conditions with quizalofop and haloxyfop: creeping bentgrass; type: cell-based, Agrostis stolonifera
Experimental: (§1) Selection conditions for creeping bentgrass cv Crenshaw and Kentucky bluegrass cv Shamrock were established using the grass-active herbicides, quizalofop and haloxyfop. Concentrations of quizalofop and haloxyfop ranged from 0 to 300 nM dissolved in defined callus maintenance media for each species. Callus tissue, derived from mature seeds of each species or cultivar, was used in the experiment. In the case of creeping bentgrass cv Crenshaw, calli maintained on CBG-3 medium were transferred to plates of CBG-3 medium containing either haloxyfop or quizalofop at 0, 50, 100, 150, 200, 250, and 300 nM final concentrations. Visual observations (growth of callus and development of necrosis) were made over a period of 1.5 months. For Kentucky bluegrass cv Shamrock and experimental line A98, calli maintained on KBG-2 were transferred to plates of KBG-2 medium containing 0, 50, 100, 150, 200, 250, and 300 nM final concentrations of the herbicides. Visual observations of callus growth and necrosis were made over a 2.5 month period. […] The calli became necrotic at lower concentrations of quizalofop relative to haloxyfop and the response was more rapid. […]

[2] = tested on: Kentucky bluegrass cv Shamrock callus; assay: Callus selection conditions with quizalofop and haloxyfop: Kentucky bluegrass; type: cell-based
Experimental: as §1

AAD1 (v1) = molecular target: T1, AAD1 (v1) (Sphingobium herbicidovorans, UniProt Q8KSC8); assay: HPLC analysis of herbicide degradation by AAD1 (v1) cell extract; type: biochemical
T1 construct: made in house; host or cells: E. coli BL-21 Star (DE3), plasmid pDAB3203
T1 sequence (Q8KSC8 whole entry): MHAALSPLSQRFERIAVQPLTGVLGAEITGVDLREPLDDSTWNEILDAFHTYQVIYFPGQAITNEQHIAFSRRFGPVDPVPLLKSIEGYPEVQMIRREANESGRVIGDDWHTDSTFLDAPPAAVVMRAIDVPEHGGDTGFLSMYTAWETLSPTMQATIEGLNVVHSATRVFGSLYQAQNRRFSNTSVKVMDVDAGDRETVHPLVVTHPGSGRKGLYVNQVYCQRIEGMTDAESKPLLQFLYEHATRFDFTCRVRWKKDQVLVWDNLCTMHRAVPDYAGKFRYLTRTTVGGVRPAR

PAAD1.315.064 ARBTH = assay: In vitro plate test of herbicide cross resistance: homozygous T4 AAD1 (v3) Arabidopsis; type: in vivo, Arabidopsis thaliana; conditions: for root ratio / shoot ratio: resistant to sensitive biotype, >2 signifies resistance; for PAAD1.315.064 ARBTH root 150 / PAAD1.315.064 T3 ARBTH shoot 150: 7 days
Outline: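 Surface-sterilised seeds sown in nutrient agar dosed with test compounds from DMSO stocks (final DMSO ≤1% v/v; DMSO-only control), grown 7 days at 25 °C under continuous light (75 μE m^−2 s^−1). Shoot growth reduction scored visually; root length measured (≥5 plants averaged) vs control. I50 calculated for root and shoot.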

[3] = tested on: non-transformed (NT) and seed-derived (WT) creeping bentgrass; assay: Quizalofop-p-ethyl postemergence on non-transformed / seed-derived creeping bentgrass controls; type: in vivo, Agrostis stolonifera L. var. palustris
Experimental: Selected T0 plants were sprayed with quizalofop-p-ethyl (Assure II®, DUPONT, Wilmington, Del.) at rates ranging from 60 to 2,240 g ae/ha. […] This rate also controls susceptible monocot weed species. Measured amounts were placed individually in 25 mL glass vials and dissolved in a 4 mL volume of 1.0% (v/v) Agri-Dex® Crop Oil Concentrate (COC) from HELENA CHEMICAL (Collierville, Tenn.). Application solutions were prepared by serial dilution of the highest rate applied. One-half the volume of the highest rate stock solution (2 mL) was transferred to a clean 25 mL vial containing an equal volume of 1% COC and the diluted solution was mixed. Additional dilutions were prepared similarly by removing one-half the volume of the previous concentration (2 mL), and adding to an equal volume of 1% COC and mixing. When preparing the lowest concentration, the remaining one-half volume was discarded. All 2 mL stock solutions were further diluted by adding 10 mL aqueous mixture of 1.0% (v/v) COC, so that the final spray solutions were 12 mL in volume and contained 1.0% (v/v) COC.
Spray solutions were applied to the plant material with an overhead Mandel™ track sprayer equipped with a 8002E nozzles calibrated to deliver 187 L/ha over an application area of 0.503 square meters (m^2) at a spray height of 18 inches (46 cm) above average plant canopy height. Control plants were sprayed in the same manner with the COC blank.
The treated plants and control plants were placed in a greenhouse, and watered by sub-irrigation to prevent wash-off of the test compounds. At various times after application, the condition of the test plants as compared with that of the untreated plants was determined visually and scored on a scale of 0 to 100 percent (where 0 corresponds to no injury or growth inhibition and 100 corresponds to complete kill). Regenerated, non-transformed (NT) ‘Crenshaw’ or elite line 2905-2 creeping bentgrass plants and/or seed-derived clonally propagated plants served as quizalofop sensitive controls.

With `CC(Oc1ccc(Oc2ncc(C(F)(F)F)cc2Cl)cc1)C(=O)O` (centres unmarked) [haloxyfop] the “concentration sufficient to kill callus within six weeks” value [1] was 250 nM and the “concentration needed to kill all calli” value [2] was 300 nM.

With `Nc1c(Cl)c(F)nc(OCC(=O)O)c1Cl` [Fluroxypyr] the “enzyme activity on substrate (HPLC)” value (AAD1 (v1); AAD1 (v1) cell extract, same conditions as 2,4-D) was “No enzyme activity was detected”, the root ratio (PAAD1.315.064 ARBTH) was 1 and the shoot ratio (PAAD1.315.064 ARBTH) was 0.5. For the same compound, the “resistance afforded by AAD1 (v3) in plate test” value (PAAD1.315.064 ARBTH; root and shoot assessment) was “did not effectively protect”, the “PAAD1.315.064 ARBTH root 150” value (PAAD1.315.064 ARBTH) was 0.2 ppm and the “PAAD1.315.064 T3 ARBTH shoot 150” value (PAAD1.315.064 ARBTH) was 1 ppm.

With `CC(Oc1ccc(Cl)cc1Cl)C(=O)O` (racemic) [(R,S)-dichlorprop, 2,4-dichlorophenoxypropionic acid] the root ratio (PAAD1.315.064 ARBTH) was 150, the shoot ratio (PAAD1.315.064 ARBTH) was 2.5 and the “PAAD1.315.064 ARBTH root 150” value (PAAD1.315.064 ARBTH) was 1.5 ppm. For the same compound, the “PAAD1.315.064 T3 ARBTH shoot 150” value (PAAD1.315.064 ARBTH) was 5 ppm.

With `C[C@@H](Oc1ccc(Oc2cnc3cc(Cl)ccc3n2)cc1)C(=O)O` [quizalofop] the “concentration sufficient to kill callus within six weeks” value [1] was 150 nM, the “concentration needed to kill all calli” value [2] was 200 nM and the “injury of control, non-transgenic plants” value ([3]; 60 g ae/ha, 21 to 24 DAA) was “about 70%”. The “injury of control, non-transgenic plants” value ([3]; 120 and 480 g ae/ha, 11, 14, 20 DAA) was “about 80% injury to greater than 90% injury”, the “injury of control, non-transgenic plants” value ([3]; 120 g ae/ha, 21 to 24 DAA) was about 80% and the “injury of control, non-transgenic plants” value ([3]; 240 g ae/ha, 21 to 24 DAA) was about 90%. The “injury of control, non-transgenic plants” value ([3]; 480 g ae/ha, 21 to 24 DAA) was about 100%.

With `O=C(O)COc1ccc(Cl)cc1Cl` [2,4-D, 2,4-dichlorophenoxyacetic acid] the “conversion of 2,4-D to DCP” value (AAD1 (v1); partially purified proteins, in vitro) was 50-100%, the “2,4-D degraded to DCP as measured by HPLC” value (AAD1 (v1); regardless of assay conditions (longer incubations, more enzyme)) was 50-75% and the “PAAD1.315.064 ARBTH root 150” value (PAAD1.315.064 ARBTH) was 0.04 ppm. The “PAAD1.315.064 T3 ARBTH shoot 150” value (PAAD1.315.064 ARBTH) was 10 ppm.

`CCOC(=O)[C@@H](C)Oc1ccc(Oc2cnc3cc(Cl)ccc3n2)cc1` [quizalofop-p-ethyl] was tested, and the “Visual Injury 39 DAA” value ([3]; 240 g ae/ha, regenerated non-transformed control NT1) was 95%, the “injury on non-transformed controls” value ([3]; both rates (120 and 480 g ae/ha)) was at least 80% and the “Mean % Injury (SE)” value ([3]; non-transformed control NT1, 120 g ae/ha, 11 DAA) was 83 (3) %. The “Mean % Injury (SE)” value ([3]; non-transformed control NT1, 120 g ae/ha, 14 DAA) was 88 (3) %, the “Mean % Injury (SE)” value ([3]; non-transformed control NT1, 120 g ae/ha, 20 DAA) was 90 (0) % and the “Mean % Injury (SE)” value ([3]; non-transformed control NT1, 480 g ae/ha, 11 DAA) was 85 (0) %. The “Mean % Injury (SE)” value ([3]; non-transformed control NT1, 480 g ae/ha, 14 DAA) was 90 (0) %, the “Mean % Injury (SE)” value ([3]; non-transformed control NT1, 480 g ae/ha, 20 DAA) was 97 (2) % and the “Mean % Injury (SE)” value ([3]; non-transformed control NT2, 120 g ae/ha, 11 DAA) was 80 (0) %. The “Mean % Injury (SE)” value ([3]; non-transformed control NT2, 120 g ae/ha, 14 DAA) was 90 (0) %, the “Mean % Injury (SE)” value ([3]; non-transformed control NT2, 120 g ae/ha, 20 DAA) was 93 (3) % and the “Mean % Injury (SE)” value ([3]; non-transformed control NT2, 480 g ae/ha, 11 DAA) was 90 (0) %. The “Mean % Injury (SE)” value ([3]; non-transformed control NT2, 480 g ae/ha, 14 DAA) was 90 (0) %, the “Mean % Injury (SE)” value ([3]; non-transformed control NT2, 480 g ae/ha, 20 DAA) was 97 (2) % and the “GR90 (herbicide rate which produces 90% injury and/or growth inhibition)” value ([3]; seed grown plants) was “approximately 60 g ae/ha”.
